From patent US20020026053A1, “Novel 3-(substituted) -2- indolinones compounds and use thereof as inhibitors of protein kinase activity” (priority 1997, published 2002)

Test system: FLK-1 receptor
Assay: FLK-1 Assay (cellular/catalytic ELISA, VEGF-stimulated phosphotyrosine)
Type: cell-based
Design: concentration or dose not given beside the values
How it was run: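 Receptor phosphotyrosine ELISA: Flk-1-expressing NIH3T3 C7#3 cells, starved overnight in 0.1% FBS medium, received compound (1:200 final dilution, 0.5% DMSO) for 2 h at 37 °C, then VEGF. Anti-FLK-1-captured receptor was probed with anti-phosphotyrosine UB40 and peroxidase/ABTS read-out, relative to cells without compound.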

Row | Structure (SMILES) | Flk Kinase % Inhibition (P.110) [%]
1 | CCOC(=O)c1c(C)[nH]c(C=C2C(=O)Nc3c(Br)cc(Br)c(C)c32)c1C [10718/H02] | −1.4
2 | COc1cc(Br)c(O)c(C=C2C(=O)Nc3c(Br)cc(Br)c(C)c32)c1 [10718/H03] | −5.0
3 | Cc1c(Br)cc(Br)c2c1C(=Cc1ccc3ccccc3c1O)C(=O)N2 [10718/H04] | −5.7
4 | CCOC(=O)CCc1c(C(=O)OCC)[nH]c(C=C2C(=O)Nc3c(Br)cc(Br)c(C)c32)c1CC(=O)OCC [10718/H05] | 1.0
5 | CCOC(=O)c1cc(C=C2C(=O)Nc3c(Br)cc(Br)c(C)c32)oc1C [10718/H06] | 18.2
6 | COC(=O)c1[nH]c(C)c(C=C2C(=O)Nc3c(Br)cc(Br)c(C)c32)c1C(=O)OC [10718/H07] | −3.0
7 | Cc1c(Br)cc(Br)c2c1C(=Cc1ccc(Cl)c([N+](=O)[O-])c1)C(=O)N2 [10718/H08] | −0.5
8 | CCOc1cccc(C=C2C(=O)Nc3c(Br)cc(Br)cc32)c1O [10734/A02] | 4.1
9 | O=C1Nc2c(Br)cc(Br)cc2C1=Cc1cc(Cl)cc(Cl)c1O [10734/A03] | 10.1
10 | O=C1Nc2c(Br)cc(Br)cc2C1=Cc1cc(Cl)ccc1O [10734/A04] | 0.6
11 | CCN(CC)c1ccc(C=C2C(=O)Nc3c(Br)cc(Br)cc32)c(O)c1 [10734/A05] | 9.1
12 | O=C1Nc2c(Br)cc(Br)cc2C1=Cc1ccc([N+](=O)[O-])cc1 [10734/A06] | −6.4
13 | O=C1Nc2c(Br)cc(Br)cc2C1=Cc1cc(Br)cc(Br)c1O [10734/A07] | −9.4
14 | O=C1Nc2c(Br)cc(Br)cc2C1=Cc1cccc(F)c1O [10734/A08] | 0.1
15 | O=C1Nc2c(Br)cc(Br)cc2C1=Cc1ccc(O)c(Br)c1 [10734/A09] | −7.9
16 | CC(C)(C)c1ccc(C=C2C(=O)Nc3c(Br)cc(Br)cc32)cc1 [10734/A10] | 4.4
17 | O=C1Nc2c(Br)cc(Br)cc2C1=Cc1ccc(Br)s1 [10734/A11] | 6.3
18 | CCOc1cccc(C=C2C(=O)Nc3ccc(I)cc32)c1O [10734/B02] | 8.5
19 | O=C1Nc2ccc(I)cc2C1=Cc1cc(Cl)cc(Cl)c1O [10734/B03] | 21.7
20 | O=C1Nc2ccc(I)cc2C1=Cc1cc(Cl)ccc1O [10734/B04] | 2.8
21 | CCN(CC)c1ccc(C=C2C(=O)Nc3ccc(I)cc32)c(O)c1 [10734/B05] | −2.3
22 | O=C1Nc2ccc(I)cc2C1=Cc1ccc([N+](=O)[O-])cc1 [10734/B06] | −0.9
23 | O=C1Nc2ccc(I)cc2C1=Cc1cc(Br)cc(Br)c1O [10734/B07] | 9.1
24 | O=C1Nc2ccc(I)cc2C1=Cc1cccc(F)c1O [10734/B08] | −0.5

Row | Structure (SMILES) | Flk Kinase % Inhibition (P.110) [%]
25 | O=C1Nc2ccc(I)cc2C1=Cc1ccc(O)c(Br)c1 [10734/B09] | −32.3
26 | CC(C)(C)c1ccc(C=C2C(=O)Nc3ccc(I)cc32)cc1 [10734/B10] | 15.7
27 | O=C1Nc2ccc(I)cc2C1=Cc1ccc(Br)s1 [10734/B11] | 12.6
28 | CCOc1cccc(C=C2C(=O)Nc3ccc(Br)c(C)c32)c1O [10734/C02] | −3.9
29 | Cc1c(Br)ccc2c1C(=Cc1cc(Cl)cc(Cl)c1O)C(=O)N2 [10734/C03] | −5.6
30 | Cc1c(Br)ccc2c1C(=Cc1cc(Cl)ccc1O)C(=O)N2 [10734/C04] | −37.6
31 | CCN(CC)c1ccc(C=C2C(=O)Nc3ccc(Br)c(C)c32)c(O)c1 [10734/C05] | −10.3
32 | Cc1c(Br)ccc2c1C(=Cc1ccc([N+](=O)[O-])cc1)C(=O)N2 [10734/C06] | −1.7
33 | Cc1c(Br)ccc2c1C(=Cc1cc(Br)cc(Br)c1O)C(=O)N2 [10734/C07] | −2.7
34 | Cc1c(Br)ccc2c1C(=Cc1cccc(F)c1O)C(=O)N2 [10734/C08] | −34.2
35 | Cc1c(Br)ccc2c1C(=Cc1ccc(O)c(Br)c1)C(=O)N2 [10734/C09] | −13.3
36 | Cc1c(Br)ccc2c1C(=Cc1ccc(C(C)(C)C)cc1)C(=O)N2 [10734/C10] | 10.1
37 | Cc1c(Br)ccc2c1C(=Cc1ccc(Br)s1)C(=O)N2 [10734/C11] | 6.3
38 | CCOc1cccc(C=C2C(=O)Nc3ccc(S(=O)(=O)NC)cc32)c1O [10734/D02] | −11.5
39 | CNS(=O)(=O)c1ccc2c(c1)C(=Cc1cc(Cl)cc(Cl)c1O)C(=O)N2 [10734/D03] | 17.4
40 | CNS(=O)(=O)c1ccc2c(c1)C(=Cc1cc(Cl)ccc1O)C(=O)N2 [10734/D04] | 6.1
41 | CCN(CC)c1ccc(C=C2C(=O)Nc3ccc(S(=O)(=O)NC)cc32)c(O)c1 [10734/D05] | 2.4
42 | CNS(=O)(=O)c1ccc2c(c1)C(=Cc1ccc([N+](=O)[O-])cc1)C(=O)N2 [10734/D06] | 0.0
43 | CNS(=O)(=O)c1ccc2c(c1)C(=Cc1cc(Br)cc(Br)c1O)C(=O)N2 [10734/D07] | 14.7
44 | CNS(=O)(=O)c1ccc2c(c1)C(=Cc1cccc(F)c1O)C(=O)N2 [10734/D08] | 2.5
45 | CNS(=O)(=O)c1ccc2c(c1)C(=Cc1ccc(O)c(Br)c1)C(=O)N2 [10734/D09] | −11.6
46 | CNS(=O)(=O)c1ccc2c(c1)C(=Cc1ccc(C(C)(C)C)cc1)C(=O)N2 [10734/D10] | 11.1
47 | CNS(=O)(=O)c1ccc2c(c1)C(=Cc1ccc(Br)s1)C(=O)N2 [10734/D11] | 9.8
48 | CCOc1cccc(C=C2C(=O)Nc3ccc(S(=O)(=O)Nc4ccc(C(F)(F)F)cc4)cc32)c1O [10734/E02] | 7.9

Row | Structure (SMILES) | Flk Kinase % Inhibition (P.110) [%]
49 | O=C1Nc2ccc(S(=O)(=O)Nc3ccc(C(F)(F)F)cc3)cc2C1=Cc1cc(Cl)cc(Cl)c1O [10734/E03] | 26.9
50 | O=C1Nc2ccc(S(=O)(=O)Nc3ccc(C(F)(F)F)cc3)cc2C1=Cc1cc(Cl)ccc1O [10734/E04] | 10.7
51 | CCN(CC)c1ccc(C=C2C(=O)Nc3ccc(S(=O)(=O)Nc4ccc(C(F)(F)F)cc4)cc32)c(O)c1 [10734/E05] | 10.6
52 | O=C1Nc2ccc(S(=O)(=O)Nc3ccc(C(F)(F)F)cc3)cc2C1=Cc1ccc([N+](=O)[O-])cc1 [10734/E06] | 28.4
53 | O=C1Nc2ccc(S(=O)(=O)Nc3ccc(C(F)(F)F)cc3)cc2C1=Cc1cc(Br)cc(Br)c1O [10734/E07] | 27.9
54 | O=C1Nc2ccc(S(=O)(=O)Nc3ccc(C(F)(F)F)cc3)cc2C1=Cc1cccc(F)c1O [10734/E08] | 26.6
55 | O=C1Nc2ccc(S(=O)(=O)Nc3ccc(C(F)(F)F)cc3)cc2C1=Cc1ccc(O)c(Br)c1 [10734/E09] | 8.0
56 | CC(C)(C)c1ccc(C=C2C(=O)Nc3ccc(S(=O)(=O)Nc4ccc(C(F)(F)F)cc4)cc32)cc1 [10734/E10] | 18.5
57 | O=C1Nc2ccc(S(=O)(=O)Nc3ccc(C(F)(F)F)cc3)cc2C1=Cc1ccc(Br)s1 [10734/E11] | 19.2
58 | CCOc1cccc(C=C2C(=O)Nc3ccc(S(=O)(=O)N4CCOCC4)cc32)c1O [10734/F02] | 6.2
59 | O=C1Nc2ccc(S(=O)(=O)N3CCOCC3)cc2C1=Cc1cc(Cl)cc(Cl)c1O [10734/F03] | 4.2
60 | O=C1Nc2ccc(S(=O)(=O)N3CCOCC3)cc2C1=Cc1cc(Cl)ccc1O [10734/F04] | −2.6
61 | CCN(CC)c1ccc(C=C2C(=O)Nc3ccc(S(=O)(=O)N4CCOCC4)cc32)c(O)c1 [10734/F05] | 9.8
62 | O=C1Nc2ccc(S(=O)(=O)N3CCOCC3)cc2C1=Cc1ccc([N+](=O)[O-])cc1 [10734/F06] | 11.0
63 | O=C1Nc2ccc(S(=O)(=O)N3CCOCC3)cc2C1=Cc1cc(Br)cc(Br)c1O [10734/F07] | 6.6
64 | O=C1Nc2ccc(S(=O)(=O)N3CCOCC3)cc2C1=Cc1cccc(F)c1O [10734/F08] | 4.8
65 | O=C1Nc2ccc(S(=O)(=O)N3CCOCC3)cc2C1=Cc1ccc(O)c(Br)c1 [10734/F09] | −3.7
66 | CC(C)(C)c1ccc(C=C2C(=O)Nc3ccc(S(=O)(=O)N4CCOCC4)cc32)cc1 [10734/F10] | 14.8
67 | O=C1Nc2ccc(S(=O)(=O)N3CCOCC3)cc2C1=Cc1ccc(Br)s1 [10734/F11] | 13.3
68 | CCOc1cccc(C=C2C(=O)Nc3ccc(CCCl)cc32)c1O [10734/G02] | 1.5
69 | O=C1Nc2ccc(CCCl)cc2C1=Cc1cc(Cl)cc(Cl)c1O [10734/G03] | 18.7
70 | O=C1Nc2ccc(CCCl)cc2C1=Cc1cc(Cl)ccc1O [10734/G04] | −1.1
